# Results taken from ChEMBL document CHEMBL5465560, “Selectivity Literature for EUbOPEN Chemogenomic Library” (2024).
# How the values were obtained:
# [1] = molecular target: T1, Cyclin-G-associated kinase (Homo sapiens) (UniProt O14976); test: Selectivity interaction (KinomeScan (DiscoverX)) EUB0000666a GAK; details: at 10 µM
# T1 sequence (whole entry): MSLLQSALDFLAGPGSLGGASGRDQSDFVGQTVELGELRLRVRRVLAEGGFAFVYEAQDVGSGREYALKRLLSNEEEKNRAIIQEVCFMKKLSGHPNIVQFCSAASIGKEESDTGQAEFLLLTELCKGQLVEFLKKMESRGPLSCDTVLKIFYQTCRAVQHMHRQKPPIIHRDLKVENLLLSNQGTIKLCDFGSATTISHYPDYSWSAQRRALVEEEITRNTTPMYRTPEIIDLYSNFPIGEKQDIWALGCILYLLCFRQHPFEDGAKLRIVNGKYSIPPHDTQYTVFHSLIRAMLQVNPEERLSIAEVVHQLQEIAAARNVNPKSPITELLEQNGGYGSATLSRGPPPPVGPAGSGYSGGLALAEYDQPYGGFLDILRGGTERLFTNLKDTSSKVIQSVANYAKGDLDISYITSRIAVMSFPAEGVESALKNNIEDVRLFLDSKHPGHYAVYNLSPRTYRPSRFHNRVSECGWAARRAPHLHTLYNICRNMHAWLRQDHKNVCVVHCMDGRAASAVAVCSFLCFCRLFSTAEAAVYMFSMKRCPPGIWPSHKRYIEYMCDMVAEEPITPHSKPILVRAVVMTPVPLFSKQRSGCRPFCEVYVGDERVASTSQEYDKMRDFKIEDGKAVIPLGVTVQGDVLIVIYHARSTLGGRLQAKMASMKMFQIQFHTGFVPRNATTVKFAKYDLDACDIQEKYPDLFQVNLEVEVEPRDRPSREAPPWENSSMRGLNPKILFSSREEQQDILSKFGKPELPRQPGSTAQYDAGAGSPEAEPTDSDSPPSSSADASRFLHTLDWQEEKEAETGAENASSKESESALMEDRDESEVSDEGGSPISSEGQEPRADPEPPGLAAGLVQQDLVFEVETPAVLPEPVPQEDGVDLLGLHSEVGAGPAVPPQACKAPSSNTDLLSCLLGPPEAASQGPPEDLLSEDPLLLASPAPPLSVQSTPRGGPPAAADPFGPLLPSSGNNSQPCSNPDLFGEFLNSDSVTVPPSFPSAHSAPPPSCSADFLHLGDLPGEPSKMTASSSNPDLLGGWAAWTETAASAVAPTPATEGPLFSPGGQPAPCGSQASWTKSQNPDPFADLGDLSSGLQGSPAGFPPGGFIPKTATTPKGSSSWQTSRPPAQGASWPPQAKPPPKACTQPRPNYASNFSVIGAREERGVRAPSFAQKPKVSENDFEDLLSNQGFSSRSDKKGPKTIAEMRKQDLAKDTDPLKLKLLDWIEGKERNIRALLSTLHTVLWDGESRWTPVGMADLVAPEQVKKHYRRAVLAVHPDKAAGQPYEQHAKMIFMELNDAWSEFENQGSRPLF
# [2] = molecular target: Receptor tyrosine-protein kinase erbB-4 (Homo sapiens, UniProt Q15303); test: Selectivity interaction (KinomeScan (DiscoverX)) EUB0000229b ERBB4; details: at 10 µM
# [3] = molecular target: Serine/threonine-protein kinase 32C (Homo sapiens) (UniProt Q86UX6); test: Selectivity interaction (KinomeScan (DiscoverX)) EUB0000229b STK32C; details: at 10 µM
# [4] = molecular target: Homeodomain-interacting protein kinase 1 (Homo sapiens, UniProt Q86Z02); test: Selectivity interaction (KinomeScan (DiscoverX)) EUB0000229b HIPK1; details: at 10 µM
# [5] = molecular target: Serine/threonine-protein kinase 32B (Homo sapiens) (UniProt Q9NY57); details: at 10 µM
# [6] = molecular target: STE20-like serine/threonine-protein kinase (Homo sapiens, UniProt Q9H2G2); test: Selectivity interaction (Kinase panel (DSF assay)) EUB0001559a SLK
# [7] = molecular target: T2, Serine/threonine-protein kinase DCLK2 (Homo sapiens) (UniProt Q8N568); details: at 10 µM
# T2 sequence (whole entry): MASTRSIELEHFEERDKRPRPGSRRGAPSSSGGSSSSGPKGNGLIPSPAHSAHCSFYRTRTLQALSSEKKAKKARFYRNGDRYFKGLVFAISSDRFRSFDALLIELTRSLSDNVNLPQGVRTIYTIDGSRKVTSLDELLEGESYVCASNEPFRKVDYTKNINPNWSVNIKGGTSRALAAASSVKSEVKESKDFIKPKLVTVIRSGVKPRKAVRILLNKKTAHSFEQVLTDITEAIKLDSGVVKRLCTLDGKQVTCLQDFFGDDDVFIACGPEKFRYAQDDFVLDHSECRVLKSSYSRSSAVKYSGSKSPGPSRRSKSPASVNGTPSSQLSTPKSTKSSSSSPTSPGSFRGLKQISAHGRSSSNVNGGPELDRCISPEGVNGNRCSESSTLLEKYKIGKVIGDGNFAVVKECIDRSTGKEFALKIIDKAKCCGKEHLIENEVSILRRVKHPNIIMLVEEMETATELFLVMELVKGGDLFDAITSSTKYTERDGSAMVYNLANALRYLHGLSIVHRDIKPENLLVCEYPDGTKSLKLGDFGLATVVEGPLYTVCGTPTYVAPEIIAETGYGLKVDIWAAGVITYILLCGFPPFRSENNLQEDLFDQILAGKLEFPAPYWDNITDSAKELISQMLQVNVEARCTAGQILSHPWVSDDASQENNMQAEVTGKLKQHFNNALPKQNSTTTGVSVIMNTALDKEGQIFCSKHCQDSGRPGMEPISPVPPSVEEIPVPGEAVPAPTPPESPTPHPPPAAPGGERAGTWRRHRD
# [8] = molecular target: BMP-2-inducible protein kinase (Homo sapiens) (UniProt Q9NSY1); test: Selectivity interaction (KinomeScan (DiscoverX)) EUB0000618a BMP2K; details: at 10 µM
# [9] = molecular target: MAP kinase-interacting serine/threonine-protein kinase 2 (Homo sapiens, UniProt Q9HBH9); test: Selectivity interaction (KinomeScan (DiscoverX)) EUB0000695a MKNK2; details: at 100 nM
# [10] = molecular target: T3, Aurora kinase C (Homo sapiens) (UniProt Q9UQB9); test: Selectivity interaction (KinomeScan (DiscoverX)) EUB0000607a AURKC; details: at 10 µM
# T3 sequence (whole entry): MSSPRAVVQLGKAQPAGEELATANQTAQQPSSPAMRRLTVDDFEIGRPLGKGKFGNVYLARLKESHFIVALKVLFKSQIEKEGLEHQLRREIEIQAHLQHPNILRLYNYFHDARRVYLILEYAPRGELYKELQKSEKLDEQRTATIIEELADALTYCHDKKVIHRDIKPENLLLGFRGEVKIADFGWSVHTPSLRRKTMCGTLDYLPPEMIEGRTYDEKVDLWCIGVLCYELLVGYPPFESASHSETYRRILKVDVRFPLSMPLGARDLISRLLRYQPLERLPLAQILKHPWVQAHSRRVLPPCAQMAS
# [11] = molecular target: Protein kinase C alpha type (Homo sapiens, UniProt P17252); test: Selectivity interaction (Kinase panel (Z-LYTE Assay)) EUB0001632a PRKCA; details: at 10 µM
# BMP-2-inducible protein kinase (Homo sapiens), sequence (Q9NSY1 whole entry, looked up): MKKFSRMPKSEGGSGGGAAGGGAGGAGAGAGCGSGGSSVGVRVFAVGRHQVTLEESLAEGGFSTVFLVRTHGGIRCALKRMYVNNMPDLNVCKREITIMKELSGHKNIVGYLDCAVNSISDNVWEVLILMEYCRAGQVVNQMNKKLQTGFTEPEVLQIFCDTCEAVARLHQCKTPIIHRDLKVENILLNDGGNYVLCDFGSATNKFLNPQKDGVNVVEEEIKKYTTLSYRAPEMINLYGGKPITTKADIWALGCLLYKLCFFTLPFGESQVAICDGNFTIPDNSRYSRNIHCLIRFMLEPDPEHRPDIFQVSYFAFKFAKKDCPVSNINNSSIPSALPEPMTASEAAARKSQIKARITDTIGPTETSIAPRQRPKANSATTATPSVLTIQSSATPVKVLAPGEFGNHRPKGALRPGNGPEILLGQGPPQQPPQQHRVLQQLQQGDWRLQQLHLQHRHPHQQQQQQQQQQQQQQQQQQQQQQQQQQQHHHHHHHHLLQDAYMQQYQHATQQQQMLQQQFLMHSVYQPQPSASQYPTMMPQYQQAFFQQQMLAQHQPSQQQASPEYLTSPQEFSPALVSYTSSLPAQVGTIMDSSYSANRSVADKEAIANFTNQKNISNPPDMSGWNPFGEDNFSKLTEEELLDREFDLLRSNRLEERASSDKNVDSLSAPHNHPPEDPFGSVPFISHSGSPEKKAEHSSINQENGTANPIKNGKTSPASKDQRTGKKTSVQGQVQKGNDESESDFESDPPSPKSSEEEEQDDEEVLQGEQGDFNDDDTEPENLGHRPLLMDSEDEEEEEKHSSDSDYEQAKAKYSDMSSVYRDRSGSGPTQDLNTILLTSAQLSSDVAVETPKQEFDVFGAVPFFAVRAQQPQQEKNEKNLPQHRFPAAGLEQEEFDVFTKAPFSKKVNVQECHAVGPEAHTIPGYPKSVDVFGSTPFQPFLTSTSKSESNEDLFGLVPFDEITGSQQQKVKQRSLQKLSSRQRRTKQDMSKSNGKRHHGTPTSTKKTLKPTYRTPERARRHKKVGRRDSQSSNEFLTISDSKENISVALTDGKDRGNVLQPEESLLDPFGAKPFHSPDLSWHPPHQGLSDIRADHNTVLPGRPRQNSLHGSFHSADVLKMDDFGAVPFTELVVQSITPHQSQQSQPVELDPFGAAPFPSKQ
# Serine/threonine-protein kinase 32C (Homo sapiens), sequence (Q86UX6 whole entry): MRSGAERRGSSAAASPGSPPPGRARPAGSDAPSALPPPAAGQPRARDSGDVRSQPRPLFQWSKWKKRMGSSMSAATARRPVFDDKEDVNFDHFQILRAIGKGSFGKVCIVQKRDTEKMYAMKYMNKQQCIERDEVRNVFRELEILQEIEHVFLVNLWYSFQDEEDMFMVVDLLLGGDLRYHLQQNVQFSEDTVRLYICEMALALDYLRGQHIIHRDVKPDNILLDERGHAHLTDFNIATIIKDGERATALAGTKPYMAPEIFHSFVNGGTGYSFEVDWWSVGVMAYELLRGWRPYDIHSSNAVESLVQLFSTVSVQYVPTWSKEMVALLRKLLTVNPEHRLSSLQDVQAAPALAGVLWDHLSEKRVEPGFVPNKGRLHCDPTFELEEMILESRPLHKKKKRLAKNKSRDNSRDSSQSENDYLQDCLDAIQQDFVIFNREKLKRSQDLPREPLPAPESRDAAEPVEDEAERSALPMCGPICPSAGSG
# STE20-like serine/threonine-protein kinase, sequence (Q9H2G2 whole entry, looked up): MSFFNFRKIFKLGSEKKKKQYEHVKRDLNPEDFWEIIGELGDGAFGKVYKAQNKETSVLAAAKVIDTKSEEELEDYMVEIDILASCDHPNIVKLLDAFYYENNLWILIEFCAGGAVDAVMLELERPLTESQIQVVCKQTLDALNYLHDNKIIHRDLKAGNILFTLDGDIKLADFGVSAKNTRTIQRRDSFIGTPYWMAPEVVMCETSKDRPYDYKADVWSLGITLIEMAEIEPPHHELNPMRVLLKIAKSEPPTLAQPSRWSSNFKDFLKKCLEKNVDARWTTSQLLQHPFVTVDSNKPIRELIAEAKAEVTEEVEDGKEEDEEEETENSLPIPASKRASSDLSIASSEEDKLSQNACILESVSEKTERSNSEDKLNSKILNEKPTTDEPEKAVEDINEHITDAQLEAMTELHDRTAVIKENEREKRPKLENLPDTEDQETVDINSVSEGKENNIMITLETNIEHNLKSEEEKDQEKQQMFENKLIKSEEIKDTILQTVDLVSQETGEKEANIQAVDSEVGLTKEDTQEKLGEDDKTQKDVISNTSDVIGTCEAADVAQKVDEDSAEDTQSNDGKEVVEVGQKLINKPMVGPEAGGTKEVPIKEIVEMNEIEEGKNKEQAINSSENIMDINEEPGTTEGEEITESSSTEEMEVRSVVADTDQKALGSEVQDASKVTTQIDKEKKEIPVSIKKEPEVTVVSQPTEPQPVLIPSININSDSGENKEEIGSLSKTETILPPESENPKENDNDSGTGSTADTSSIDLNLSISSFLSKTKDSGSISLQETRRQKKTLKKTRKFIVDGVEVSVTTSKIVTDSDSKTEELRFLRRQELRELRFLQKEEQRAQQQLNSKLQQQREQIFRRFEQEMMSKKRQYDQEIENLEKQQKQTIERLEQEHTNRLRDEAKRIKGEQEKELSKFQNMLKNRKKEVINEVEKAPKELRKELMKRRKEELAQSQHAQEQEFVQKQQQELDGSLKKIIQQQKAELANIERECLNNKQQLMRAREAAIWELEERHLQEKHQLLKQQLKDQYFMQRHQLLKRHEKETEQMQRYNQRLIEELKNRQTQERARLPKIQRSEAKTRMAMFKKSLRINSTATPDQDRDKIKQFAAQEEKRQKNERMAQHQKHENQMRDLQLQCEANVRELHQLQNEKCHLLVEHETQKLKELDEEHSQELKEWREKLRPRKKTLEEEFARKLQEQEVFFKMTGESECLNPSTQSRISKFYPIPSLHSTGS
# MAP kinase-interacting serine/threonine-protein kinase 2, sequence (Q9HBH9 whole entry, looked up): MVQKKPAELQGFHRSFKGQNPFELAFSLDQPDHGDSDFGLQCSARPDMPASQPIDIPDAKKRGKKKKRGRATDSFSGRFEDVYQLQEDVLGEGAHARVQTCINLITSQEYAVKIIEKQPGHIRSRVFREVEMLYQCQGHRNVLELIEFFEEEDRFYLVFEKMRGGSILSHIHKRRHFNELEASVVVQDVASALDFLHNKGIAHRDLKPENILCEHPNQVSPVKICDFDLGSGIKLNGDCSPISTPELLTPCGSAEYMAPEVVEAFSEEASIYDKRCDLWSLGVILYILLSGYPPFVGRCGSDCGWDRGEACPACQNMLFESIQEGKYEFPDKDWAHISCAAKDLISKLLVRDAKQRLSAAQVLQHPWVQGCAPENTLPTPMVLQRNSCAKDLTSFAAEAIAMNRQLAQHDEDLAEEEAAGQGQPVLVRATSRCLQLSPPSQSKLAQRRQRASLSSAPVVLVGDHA
# Serine/threonine-protein kinase 32B (Homo sapiens), sequence (Q9NY57 whole entry): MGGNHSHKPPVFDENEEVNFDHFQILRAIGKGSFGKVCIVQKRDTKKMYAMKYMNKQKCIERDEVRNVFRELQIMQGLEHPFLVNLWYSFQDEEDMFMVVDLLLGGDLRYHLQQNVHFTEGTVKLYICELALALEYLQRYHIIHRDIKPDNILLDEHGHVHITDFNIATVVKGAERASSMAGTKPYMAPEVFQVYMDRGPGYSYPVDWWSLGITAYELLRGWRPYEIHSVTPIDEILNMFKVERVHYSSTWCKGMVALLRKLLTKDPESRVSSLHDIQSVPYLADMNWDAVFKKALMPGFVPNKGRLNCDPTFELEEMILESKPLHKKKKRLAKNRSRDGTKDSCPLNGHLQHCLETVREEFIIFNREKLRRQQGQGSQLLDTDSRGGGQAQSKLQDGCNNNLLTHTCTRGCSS
structure (smiles),measurement,setting,value
O=C(NOC[C@H](O)CO)c1ccc(F)c(F)c1Nc1ccc(I)cc1F,% of control,[1],71%
COc1cc(N(C)c2ccnc3ccc(C(F)(F)F)cc23)cc(OC)c1OC,% binding,[2],81%
same,% binding,[3],99%
same,% binding,[4],77%
CCN(CC)CCCCNc1ncc2cc(-c3cc(OC)cc(OC)c3)c(NC(=O)NC(C)(C)C)nc2n1,% of control,[5],100%
CN(C(=O)c1cnn2cccnc12)c1cc2c(cc1N1CCOCC1)C(=O)N(C[C@@H](F)C(C)(C)O)C2,dTM,[6],1 K
COCC(=O)NC/C=C/c1ccc2ncnc(Nc3ccc(Oc4ccc(C)nc4)c(C)c3)c2c1 [CP-724714],% of control,[7],100%
O[C@H]1CC[C@H](Nc2ncc3nc(Nc4c(F)cc(F)cc4F)n([C@H]4CCOC4)c3n2)CC1,% of control,[8],100%
Cc1cc(F)c(C(=O)Nc2cccc(-c3nncn3C(C)C)n2)cc1-n1cnc(C2CC2)c1,% of control,[9],75%
CNC(=O)Nc1ccc(-c2nc(N3CC4CCC(C3)O4)c3cnn(C4CCC5(CC4)OCCO5)c3n2)cc1,% of control,[10],86%
Cn1cc(-n2cnc3c(NCc4nc5cc(Cl)c(Cl)cc5[nH]4)nc(N4CCOCC4)nc32)cn1,% of control,[11],1.16%
